*1 amine or outer side, *2 acyl side, *3 side chain or, on linkers, in order; H or OH if unused. Where a SMILES comes first, the peptide text is derived from it. Bridges are numbered along the chain shown (N, C = ends). [ ]: non-standard residue; d: D form. The star is where a group is joined. NMeHph(3-OMe-4-CONHMe) = CNC(=O)c1ccc(CC[C@H](NC)C(=O)O)cc1OC; X11 = CNC(=O)c1ccc(CCN(CC(=O)[*:2])[*:1])cc1OC; X16 = CC(C)C(C)[C@H](N[*:1])C(=O)[*:2]; Hyp = O=C(O)[C@@H]1C[C@@H](O)CN1; NMeF = CN[C@@H](Cc1ccccc1)C(=O)O; NMeGABA = CN(CCCC(=O)[*:2])[*:1]; NMeI = CC[C@H](C)[C@H](NC)C(=O)O; NMeL = CN[C@@H](CC(C)C)C(=O)O; dNMeL = CN[C@H](CC(C)C)C(=O)O; NMeAbu = CC[C@H](NC)C(=O)O; NMeA = CN[C@@H](C)C(=O)O; Piperidide = C1CCN(*)CC1; Abu = CC[C@H](N)C(=O)O; X8 = C1COC[C@@H](C*)N1; NBuGly = CCCCNCC(=O)O; Ethyl(2-OH) = OCC*; Sar = CNCC(=O)O; tBu = CC(C)(C)*
Assay: in vitro
Conditions: human, Caco-2, Caco-2 (cm/sec)

CC[C@H](C)[C@@H]1NC(=O)[C@H](CC(C)C)N(C)C(=O)[C@@H](CC(C)C)NC(=O)C[C@@H](C(=O)N2CCCCC2)NC(=O)[C@H](CC(C)C)N(C)C(=O)[C@H](Cc2ccccc2)N(C)C(=O)[C@H](COC(C)(C)C)NC(=O)CN(CCc2ccc(C(=O)NC)c(OC)c2)C(=O)CN(C)C(=O)[C@H]([C@@H](C)O)NC(=O)[C@H](CC(C)C)N(C)C1=O [AP221] ([dL][NMeL]I[NMeL]T[Sar][X11]S(tBu)[NMeF][NMeL]D-Piperidide; lactam N-11)
Papp: 0.28 ×10⁻⁶ cm/s

CC[C@H](C)[C@@H]1NC(=O)[C@H](CC(C)C)N(C)C(=O)[C@@H](C)NC(=O)C[C@@H](C(=O)N2CCCCC2)NC(=O)[C@H](CC(C)C)N(C)C(=O)[C@H](Cc2ccccc2)N(C)C(=O)[C@H](COC(C)(C)C)NC(=O)[C@H](CC(C)C)N(C)C(=O)[C@H](CC)N(C)C(=O)[C@H]([C@@H](C)O)NC(=O)CN(CCc2ccc(C(=O)NC)c(OC)c2)C1=O [AP222] ([dA][NMeL]I[X11]T[NMeAbu][NMeL]S(tBu)[NMeF][NMeL]D-Piperidide; lactam N-11)
Papp: 0.31 ×10⁻⁶ cm/s

CC[C@H]1C(=O)N[C@@H](CC(C)C)C(=O)N(C)[C@@H](CC(C)C)C(=O)N(C)[C@@H](Cc2ccccc2)C(=O)N[C@@H](CC(C)C)C(=O)N(C)[C@@H](CC(C)C)C(=O)N(CCc2ccc(C(=O)NC)c(OC)c2)CC(=O)N[C@@H]([C@@H](C)O)C(=O)N(C)CC(=O)N(C)[C@@H](CC(C)C)C(=O)N[C@H](C(=O)N2CCCCC2)CC(=O)N1C [AP223] ([NMeAbu]L[NMeL][NMeF]L[NMeL][X11]T[Sar][NMeL]D-Piperidide; lactam N-11)
Papp: 1.6 ×10⁻⁶ cm/s

CC[C@H](C)[C@@H]1NC(=O)[C@H](CC(C)C)N(C)C(=O)CCCN(C)C(=O)C[C@@H](C(=O)N2CCCCC2)NC(=O)[C@H](CC(C)C)N(C)C(=O)[C@H](CC(C)C)N(C)C(=O)[C@H]([C@@H](C)O)NC(=O)[C@H](CC(C)C)N(C)C(=O)[C@H](COC(C)(C)C)NC(=O)[C@H](Cc2ccccc2)N(C)C(=O)[C@H](CCc2ccc(C(=O)NC)c(OC)c2)N(C)C1=O [AP227] ([NMeGABA][NMeL]I[NMeHph(3-OMe-4-CONHMe)][NMeF]S(tBu)[NMeL]T[NMeL][NMeL]D-Piperidide; lactam N-11)
Papp: 0.48 ×10⁻⁶ cm/s

CC[C@H](C)[C@@H]1NC(=O)[C@H](CC(C)C)N(C)C(=O)CCCN(C)C(=O)C[C@@H](C(=O)N2CCCCC2)NC(=O)[C@H](CC(C)C)N(C)C(=O)[C@H](CCc2ccc(C(=O)NC)c(OC)c2)N(C)C(=O)[C@H]([C@@H](C)O)NC(=O)[C@H](CC(C)C)N(C)C(=O)[C@H](COC(C)(C)C)NC(=O)[C@H](CC(C)C)N(C)C(=O)[C@H](Cc2ccccc2)N(C)C1=O [AP228] ([NMeGABA][NMeL]I[NMeF][NMeL]S(tBu)[NMeL]T[NMeHph(3-OMe-4-CONHMe)][NMeL]D-Piperidide; lactam N-11)
Papp: 0.84 ×10⁻⁶ cm/s

CC[C@@H]1NC(=O)[C@H](CCc2ccc(C(=O)NC)c(OC)c2)N(C)C(=O)[C@H](CC(C)C)N(C)C(=O)[C@H](CC(C)C)NC(=O)[C@H](C)N(C)C(=O)C[C@@H](C(=O)N2CCCCC2)NC(=O)[C@H](CC(C)C)N(C)C(=O)CN(C)C(=O)[C@H]([C@@H](C)O)NC(=O)[C@H](CC(C)C)N(C)C(=O)[C@H](Cc2ccccc2)N(C)C1=O [AP229] ([NMeA]L[NMeL][NMeHph(3-OMe-4-CONHMe)][Abu][NMeF][NMeL]T[Sar][NMeL]D-Piperidide; lactam N-11)
Papp: 0.43 ×10⁻⁶ cm/s

CNC(=O)c1ccc(CC[C@H]2C(=O)N(C)[C@@H](CC(C)C)C(=O)N[C@@H]([C@@H](C)O)C(=O)N(C)CC(=O)N(C)[C@@H](CC(C)C)C(=O)N[C@H](C(=O)N3CCCCC3)CC(=O)N(C)[C@@H](C)C(=O)N[C@@H](CC(C)C)C(=O)N(C)[C@@H](CC(C)C)C(=O)N(C)[C@@H](Cc3ccccc3)C(=O)N[C@@H](CC(C)C)C(=O)N2C)cc1OC [AP230] ([NMeA]L[NMeL][NMeF]L[NMeHph(3-OMe-4-CONHMe)][NMeL]T[Sar][NMeL]D-Piperidide; lactam N-11)
Papp: 0.96 ×10⁻⁶ cm/s

CCCCN1CC(=O)N(C)[C@@H](Cc2ccccc2)C(=O)N(C)[C@@H](CC(C)C)C(=O)N[C@@H](COC(C)(C)C)C(=O)N(C)[C@@H](CC(C)C)C(=O)N[C@H](C(=O)N2CCCCC2)CC(=O)N(C)CC(=O)N(C)[C@@H](CCc2ccc(C(=O)NC)c(OC)c2)C(=O)N[C@@H](C(C)C)C(=O)N(C)[C@@H](CC(C)C)C(=O)N[C@@H]([C@@H](C)O)C1=O [AP231] ([Sar][NMeHph(3-OMe-4-CONHMe)]V[NMeL]T[NBuGly][NMeF][NMeL]S(tBu)[NMeL]D-Piperidide; lactam N-11)
Papp: 1 ×10⁻⁶ cm/s

CCCCN1CC(=O)N(C)[C@@H](Cc2ccccc2)C(=O)N[C@@H]([C@@H](C)CC)C(=O)N(C)[C@@H](CC(C)C)C(=O)N[C@@H]([C@@H](C)O)C(=O)N(C)CC(=O)N(C)[C@@H](CCc2ccc(C(=O)NC)c(OC)c2)C(=O)N(C)[C@@H](CC(C)C)C(=O)N[C@@H](COC(C)(C)C)C(=O)N(C)[C@@H](CC(C)C)C(=O)N[C@H](C(=O)N2CCCCC2)CC1=O [AP232] ([NBuGly][NMeF]I[NMeL]T[Sar][NMeHph(3-OMe-4-CONHMe)][NMeL]S(tBu)[NMeL]D-Piperidide; lactam N-11)
Papp: 2 ×10⁻⁶ cm/s

CC[C@H](C)[C@@H]1NC(=O)[C@H](CC(C)C)N(C)C(=O)[C@@H]2C[C@@H](OCCO)CN2C(=O)[C@H]([C@@H](C)O)NC(=O)[C@H](CC(C)C)N(C)C(=O)[C@H](CC(C)C)NC(=O)[C@H](C(C)C(C)C)NC(=O)[C@@H](CC(C)C)N(C)C(=O)C[C@@H](C(=O)N2CCCCC2)NC(=O)[C@H](CC(C)C)NC(=O)[C@H](CC(C)C)N(C)C1=O (stereo partly shown) [AP233] ([dNMeL][X16]L[NMeL]T[Hyp](Ethyl(2-OH))[NMeL]I[NMeL]LD-Piperidide; lactam N-11)
Papp: 3 ×10⁻⁶ cm/s

CC(C)C[C@H]1NC(=O)C[C@@H](C(=O)N2CCCCC2)NC(=O)[C@H](CC(C)C)N(C)C(=O)[C@H](Cc2ccccc2)NC(=O)[C@H](Cc2ccccc2)N(C)C(=O)[C@H]([C@@H](C)O)NC(=O)[C@H](CC(C)C)N(C)C(=O)[C@@H]2C[C@@H](OCCO)CN2C(=O)[C@H](CC(C)C)N(C)C(=O)[C@H](COC(C)(C)C)NC(=O)[C@@H]2CCCN2C1=O [AP234] ([dL]PS(tBu)[NMeL][Hyp](Ethyl(2-OH))[NMeL]T[NMeF]F[NMeL]D-Piperidide; lactam N-11)
Papp: 1.3 ×10⁻⁶ cm/s

CC(C)C[C@@H]1NC(=O)C[C@@H](C(=O)N2CCCCC2)NC(=O)[C@H](CC(C)C)N(C)C(=O)[C@H](Cc2ccccc2)NC(=O)[C@H](Cc2ccccc2)N(C)C(=O)[C@H]([C@@H](C)O)NC(=O)[C@H](CC(C)C)N(C)C(=O)[C@@H]2C[C@@H](OCCO)CN2C(=O)[C@H](CC(C)C)N(C)C(=O)[C@H](COC(C)(C)C)NC(=O)[C@H](CC(C)C)N(C)C1=O [AP235] (L[NMeL]S(tBu)[NMeL][Hyp](Ethyl(2-OH))[NMeL]T[NMeF]F[NMeL]D-Piperidide; lactam N-11)
Papp: 1.5 ×10⁻⁶ cm/s

CC(C)C[C@@H]1NC(=O)[C@H](CC(C)C)N(C)C(=O)[C@H](CC(C)C)N(C)C(=O)[C@H](COC(C)(C)C)NC(=O)[C@H](CC(C)C)N(C)C(=O)[C@@H](C(C)C)NC(=O)C[C@@H](C(=O)N2CCCCC2)NC(=O)[C@H](CC(C)C)N(C)C(=O)[C@H](Cc2ccccc2)NC(=O)[C@@H]2C[C@@H](OCCO)CN2C(=O)[C@H]([C@@H](C)O)NC1=O [AP237] ([dV][NMeL]S(tBu)[NMeL][NMeL]LT[Hyp](Ethyl(2-OH))F[NMeL]D-Piperidide; lactam N-11)
Papp: 1.3 ×10⁻⁶ cm/s

CC[C@H](C)[C@H]1C(=O)N2CCC[C@H]2C(=O)N(C)[C@@H](CC(C)C)C(=O)N[C@@H](COC(C)(C)C)C(=O)N2C[C@H](OCCO)C[C@H]2C(=O)N[C@@H]([C@@H](C)O)C(=O)N(C)[C@@H](CC(C)C)C(=O)N(C)[C@@H](CC(C)C)C(=O)N(C)[C@@H](CC(C)C)C(=O)N[C@H](C(=O)N2CCCCC2)CC(=O)N[C@H](CC(C)C)C(=O)N1C [AP238] ([dL][NMeI]P[NMeL]S(tBu)[Hyp](Ethyl(2-OH))T[NMeL][NMeL][NMeL]D-Piperidide; lactam N-11)
Papp: 2 ×10⁻⁶ cm/s

CCCCN1CC(=O)N(C)[C@@H](CC(C)C)C(=O)N[C@@H](COC[C@@H]2COCCN2)C(=O)N(C)[C@@H](CC(C)C)C(=O)N(C)[C@@H](CC(C)C)C(=O)N[C@H](C(=O)N2CCCCC2)CC(=O)N[C@H](C(C)C)C(=O)N(C)[C@@H](Cc2ccccc2)C(=O)N[C@@H](CC(C)C)C(=O)N(C)[C@@H](CC)C(=O)N[C@@H]([C@@H](C)O)C1=O [AP239] ([dV][NMeF]L[NMeAbu]T[NBuGly][NMeL]S(X8)[NMeL][NMeL]D-Piperidide; lactam N-11)
Papp: 0.18 ×10⁻⁶ cm/s

CCCCN1CC(=O)N(C)[C@@H](CC)C(=O)N[C@@H](COC[C@@H]2COCCN2)C(=O)N(C)[C@@H](Cc2ccccc2)C(=O)N(C)[C@@H](CC)C(=O)N[C@H](C(=O)N2CCCCC2)CC(=O)N[C@H](CC(C)C)C(=O)N(C)[C@@H](CC(C)C)C(=O)N[C@@H]([C@@H](C)CC)C(=O)N(C)[C@@H](CC(C)C)C(=O)N[C@@H]([C@@H](C)O)C1=O [AP240] ([dL][NMeL]I[NMeL]T[NBuGly][NMeAbu]S(X8)[NMeF][NMeAbu]D-Piperidide; lactam N-11)
Papp: 0.08 ×10⁻⁶ cm/s

CC[C@H](C)[C@@H]1NC(=O)[C@H](CC(C)C)N(C)C(=O)CCCN(C)C(=O)C[C@@H](C(=O)N2CCCCC2)NC(=O)[C@H](CC(C)C)N(C)C(=O)[C@H](CC(C)C)N(C)C(=O)[C@H]([C@@H](C)O)NC(=O)[C@H](CC(C)C)N(C)C(=O)[C@H](COC[C@@H]2COCCN2)NC(=O)[C@H](CC(C)C)N(C)C(=O)[C@H](Cc2ccccc2)N(C)C1=O [AP241] ([NMeGABA][NMeL]I[NMeF][NMeL]S(X8)[NMeL]T[NMeL][NMeL]D-Piperidide; lactam N-11)
Papp: 0.05 ×10⁻⁶ cm/s

CCCCN1CC(=O)N(C)[C@@H](CC(C)C)C(=O)N[C@H](C(=O)N2CCCCC2)CC(=O)N(C)[C@@H](CC)C(=O)N[C@@H](CC(C)C)C(=O)N(C)[C@@H](CC(C)C)C(=O)N(C)[C@@H](Cc2ccccc2)C(=O)N[C@@H](COC[C@@H]2COCCN2)C(=O)N(C)[C@@H](CC)C(=O)N(C)[C@@H](CC(C)C)C(=O)N[C@@H]([C@@H](C)O)C1=O [AP242] ([NMeAbu]L[NMeL][NMeF]S(X8)[NMeAbu][NMeL]T[NBuGly][NMeL]D-Piperidide; lactam N-11)
Papp: 1.2 ×10⁻⁶ cm/s

CCCCN1CC(=O)N(C)[C@@H](CC(C)C)C(=O)N[C@H](C(=O)N2CCCCC2)CC(=O)N(C)[C@@H](C)C(=O)N[C@@H](COC[C@@H]2COCCN2)C(=O)N(C)[C@@H](CC(C)C)C(=O)N(C)[C@@H](CC)C(=O)N[C@@H](C(C)C)C(=O)N(C)[C@@H](Cc2ccccc2)C(=O)N(C)[C@@H](CC(C)C)C(=O)N[C@@H]([C@@H](C)O)C1=O [AP243] ([NMeA]S(X8)[NMeL][NMeAbu]V[NMeF][NMeL]T[NBuGly][NMeL]D-Piperidide; lactam N-11)
Papp: 0.46 ×10⁻⁶ cm/s
